Data on nine molecules can be found in PubChem BioAssay AID2060599 (Molecular Pharmacology Branch, DTP, NCI, 2025).

The subject of the test is 817829-284-R-J1-PDC complex spheroids, viability. Kind of test: Anticancer human tumor 817829-284-R-J1-PDC patient-derived colon adenocarcinoma cell line growth inhibition [CLK]. Conditions: for viability, T/C: stronger effect = lower value; for IC50: curve of compound. The source says:
A high-throughput screen of multi-cell type tumor spheroids was designed to identify active combinations of […] and targeted small molecules. Complex spheroids include a stromal component modeled by human endothelial cells (HUVEC) and fibroblasts modeled by human mesenchymal stem cells (MSCs). The concentration ranges selected for each drug and investigational agent were based upon clinically achievable concentrations if the clinical Cmax of the agent was known.
Compounds. The drugs and investigational agents: cirtuvivint (SM08502; NSC835563), CC-671 (NSC850746), vemurafenib (NSC761431), tapotoclax (NSC804041), sotorasib (NSC818433), adagrasib (NSC831453), MRTX-1133 (NSC836407), BAY2416964 (NSC825713), copanlisib (NSC816437), inavolisib (NSC800729), abemaciclib (NSC768073), osimertinib (NSC779217), entinostat (NSC756642), eltanexor (KPT-8602, NSC794443), venetoclax (NSC766270), ceralasertib (NSC777638), bortezomib (NSC756655), olaparib (NSC753686), talazoparib (NSC767125), alisertib (NSC759677), peposertib (NSC802822), gemcitabine (NSC613327), 5-fluorouracil (NSC19893), SN-38 (NSC673596), oxaliplatin (NSC266046), paclitaxel (NSC125973), and doxorubicin (NSC123127), were obtained from the National Cancer Institute (NCI) Developmental Therapeutics Program Chemical Repository. The FDA-approved anticancer drug set is available from the Developmental Therapeutics Program at https://dtp.cancer.gov/organization/dscb/obtaining/available plates.htm. […] The stock solutions were prepared in dimethyl sulfoxide (DMSO, Sigma-Aldrich, St. Louis, MO, cat. D2650), except for the platinum complexes which were prepared in saline (Quality Biological, Gaithersburg, MD, cat. 114-055-101), at 800-fold the tested concentration and stored at -70 degrees C prior to their use. All drugs and investigational agents were tested over a range starting from a high concentration at or near the clinical Cmax and decreasing in half-log increments. If the clinical Cmax for an agent had not been determined, the highest concentration tested was 10 microM.
Cell Culture. All cells were maintained in an incubator at 37 degrees C and 5% CO2 with 95% humidity. The PDC lines were cultured according to standard operating procedures established by the NCI PDMR. Briefly, all PDCs were thawed and cultured in Matrigel-coated flasks prepared with a working solution of 1X Ham's F-12 nutrient mix, without supplementation (Invitrogen, Waltham, MA, cat. 11765054), 100 U/mL penicillin-streptomycin (Invitrogen, cat. 15140122), and 2.5% Matrigel (Corning Inc., Corning, NY, cat. 354248) for the first three passages. The 947758-054-R-J2-PDC line was cultured in 6B/Colon 1A media, which includes advanced DMEM/F-12 (Thermo Fisher Scientific, cat. 12634028), 10 mM HEPES (Thermo Fisher Scientific, cat. 15630080), 1X GlutaMAX supplement (Thermo Fisher Scientific, cat. 35050061), 0.1 mg/mL primocin (InvivoGen, cat. ant-pm-2), 10% defined fetal bovine serum, heat inactivated (HyClone Laboratories Inc., cat. SH30070.03HI), 1.25 mM N-Acetyl-L-cysteine (Sigma-Aldrich, cat. A9165), 10 mM nicotinamide (Sigma-Aldrich, cat. N0636), 1X B-27 supplement (Thermo Fisher Scientific, cat. 17504044), 1X N-2 supplement (Thermo Fisher Scientific, cat. 17502048), and 10 microM Y-27632 dihydrochloride (Tocris Bioscience, cat. 1254). The 876862-298-R-J1-PDC was cultured in 6E media, which includes all 6B/Colon 1A media components plus 50% L-WRN conditioned media (ATCC, cat. CRL-3276), 50 ng/mL recombinant human EGF recombinant protein (hEGF; Thermo Fisher Scientific, cat. PHG0311), 10 ng/mL recombinant human fibroblast growth factor 10 (hGFG-10; PeproTech, cat. 100-26), 1 ng/mL recombinant human fibroblast growth factor 2 (hFGF-2; PeproTech, cat. 100-18B), and 1 µM prostaglandin E2 (PGE2; Tocris, cat. 2296). The 227483-062-R1-J1-PDC line was cultured in Panc media, containing all 6E components except hFGF-2, with the addition of 500 nM SB-431542 (Selleckchem, cat. S1067) and 10 nM gastrin (Tocris, cat. 3006). […]

Where “and” joins values, the source holds several entries; their conditions need not be identical. Equal values may be shown once.
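Also: spheroids exposed to the agents for seven days before readout.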

In general, viability, T/C refers to the result in the treated group divided by that in the control group, in per cent. What is called IC50 is the concentration at which inhibition is half-maximal. As for `CC(=O)O[C@H]1C(=O)[C@@]2(C)[C@H]([C@H](OC(=O)c3ccccc3)[C@]3(O)C[C@H](OC(=O)[C@H](O)[C@@H](NC(=O)c4ccccc4)c4ccccc4)C(C)=C1C3(C)C)[C@]1(OC(C)=O)CO[C@@H]1C[C@@H]2O`, the IC50 was less than 31.6 nM. Where the note is “compound 0.0316 µM”, the viability, T/C was 5.82% and 6.97%. Further, the viability, T/C (compound 0.1 µM) is 4.87% and 7.28%. Moreover, the viability, T/C (compound 0.316 µM) was 5.22% and 6.91%. In addition, the viability, T/C (compound 1 µM) was 5.4% and 7.87%. Moreover, the viability, T/C (compound 3.16 µM) was 6.88% and 8.37%. Under “compound 10 µM”, the viability, T/C was 6.36% and 7.7%.
For `CC1(C)CCC(CN2CCN(c3ccc(C(=O)NS(=O)(=O)c4ccc(NCC5CCOCC5)c([N+](=O)[O-])c4)c(Oc4cnc5[nH]ccc5c4)c3)CC2)=C(c2ccc(Cl)cc2)C1`, the IC50 turned out to be 4310 nM. Besides, the viability, T/C (compound 0.0316 µM) was 103%. Also, the viability, T/C (compound 0.1 µM) was 85.1%. Also, where the note is “compound 0.316 µM”, the viability, T/C is 98.6%. Moreover, for the setting “compound 1 µM”, the viability, T/C was 63.7%. Under “compound 3.16 µM”, the viability, T/C was 77.5%. The viability, T/C (compound 10 µM) was 2.29%.
With `CC1COCCN1c1cc(C2(S(C)(=N)=O)CC2)nc(-c2ccnc3[nH]ccc23)n1` (stereo not drawn), the IC50 came out at 626 nM. Further, the viability, T/C (compound 0.0316 µM) was 63.5%. In addition, for the setting “compound 0.1 µM”, the viability, T/C was 99.9%. The viability, T/C (compound 0.316 µM) is 62.4%. Where the note is “compound 1 µM”, the viability, T/C is 39%. For the setting “compound 3.16 µM”, the viability, T/C is 9.17%. Moreover, the viability, T/C (compound 10 µM) was 4.99%.
As to `COc1ccc([C@@H](O)c2cc(-c3ncnc4cc(N5CCOCC5)ccc34)c(F)cc2Cl)nn1`, the IC50 came out at 1040 nM. For the same molecule, for the setting “compound 0.0316 µM”, the viability, T/C is 117%. Further, the viability, T/C (compound 0.1 µM) is 105%. For the same molecule, the viability, T/C (compound 0.316 µM) was 86.4%. In addition, where the note is “compound 1 µM”, the viability, T/C was 48.6%. For the same molecule, where the note is “compound 3.16 µM”, the viability, T/C is 31.6%. In addition, the viability, T/C (compound 10 µM) was 21.2%.
With `COc1cccc2c1C(=O)c1c(O)c3c(c(O)c1C2=O)CC(O)(C(=O)CO)CC3OC1CC(N)C(O)C(C)O1` (stereo not drawn), the IC50 was less than 31.6 nM. For the same molecule, the viability, T/C (compound 0.0316 µM) was 20.5%. Moreover, where the note is “compound 0.1 µM”, the viability, T/C was 16.4%. Further, for the setting “compound 0.316 µM”, the viability, T/C was 4.21%. For the same molecule, the viability, T/C (compound 1 µM) was 0.22%. Further, the viability, T/C (compound 3.16 µM) was 0.3%. Where the note is “compound 10 µM”, the viability, T/C was 0.85%.
As to `Nc1ccccc1NC(=O)c1ccc(CNC(=O)OCc2cccnc2)cc1`, the IC50 turned out to be 465 nM. Also, the viability, T/C (compound 0.0316 µM) was 89%. Moreover, the viability, T/C (compound 0.1 µM) was 85.3%. In addition, the viability, T/C (compound 0.316 µM) is 53.5%. Besides, the viability, T/C (compound 1 µM) is 35.9%. Also, the viability, T/C (compound 3.16 µM) is 10%. For the same molecule, where the note is “compound 10 µM”, the viability, T/C is 0.1%.
Take `Nc1ccn(C2OC(CO)C(O)C2(F)F)c(=O)n1` (stereo not drawn): the IC50 was less than 31.6 nM. For the setting “compound 0.0316 µM”, the viability, T/C is 4.87% and 7.45%. Besides, under “compound 0.1 µM”, the viability, T/C was 5.51% and 7.25%. For the same molecule, the viability, T/C (compound 0.316 µM) is 4.21% and 7.26%. In addition, the viability, T/C (compound 1 µM) is 3.92% and 6.91%. Also, under “compound 3.16 µM”, the viability, T/C was 3.8% and 5.67%. Besides, the viability, T/C (compound 10 µM) is 2.53% and 4.69%.
For `O=C(c1cc(Cc2n[nH]c(=O)c3ccccc23)ccc1F)N1CCN(C(=O)C2CC2)CC1`, the IC50 is 3680 nM and 4810 nM. Further, the viability, T/C (compound 0.0316 µM) is 87.7% and 101%. In addition, the viability, T/C (compound 0.1 µM) is 89% and 107%. Further, the viability, T/C (compound 0.316 µM) was 81.1% and 74.2%. In addition, the viability, T/C (compound 1 µM) was 70.4% and 86.8%. Under “compound 3.16 µM”, the viability, T/C was 52.5% and 54%. For the same molecule, the viability, T/C (compound 10 µM) is 34.7% and 36.2%.
With `O=c1[nH]cc(F)c(=O)[nH]1`, the IC50 was 5960 nM and 898 nM. Further, the viability, T/C (compound 0.0316 µM) was 66% and 85.8%. Moreover, the viability, T/C (compound 0.1 µM) was 74.9% and 79.8%. Moreover, under “compound 0.316 µM”, the viability, T/C was 98.9% and 85%. Under “compound 1 µM”, the viability, T/C was 67.1% and 46.5%. In addition, the viability, T/C (compound 3.16 µM) was 63.9% and 53.2%. For the same molecule, the viability, T/C (compound 10 µM) was 39.6% and 38%.
